Measured values as given in patent US20230391765A1, “HETEROBIFUNCTIONAL COMPOUNDS AS DEGRADERS OF ENL” (ICAHN SCHOOL OF MEDICINE AT MOUNT SINAI, priority 2020, published 2023).

Tests used:
[1] = tested on: ENL target genes; assay: RT-qPCR of ENL target genes in MOLM13 cells; type: cell-based; settings: MOLM13 cells, 8 μM for 24 h
Description: MOLM13 cells were treated with LQ076-122 (FIG. 14A) and LQ081-108 (FIG. 14B) at 0.5, 1, 2, 4, and 8 μM for 24 h. […] RT-qPCR analysis was performed to detect the mRNA levels of selected ENL target genes.
Total RNA was extracted using the RNeasy Plus kit (Qiagen) and reverse-transcribed using the iScript cDNA Synthesis kit (Bio-Rad). RT-qPCR was performed using the Power SYBR Green PCR Master Mix (Applied Biosystems) on the CFX96 Real-Time PCR system (Bio-Rad). Gene expressions were calculated following normalization to 18s rRNA amounts using the comparative cycle threshold (Ct) method.

[2] = tested on: MV4; 11 cells; assay: Apoptosis assay (FITC Annexin V), MV4; 11 cells; type: cell-based; settings: 11 cells, 1, 2 and 4 μM for 24 h
Description: (§1) Apoptotic cells were measured by the FITC Annexin V Apoptosis Detection Kit (BD Biosciences).
(§2) MV4; 11 or MOLM13 cells were seeded at 0.2×10^6 cells/mL density. Cells were treated with DMSO or ENL degraders at indicated concentrations. Each treatment was done in triplicates. After 24 h treatment, cells were collected and washed with ice-cold PBS once and resuspended in 250 μL of 1× binding buffer containing 5 μL of FITC-Annexin V and PI (BD Biosciences). After 15 min incubation at room temperature in the dark, 250 μL of 1× binding buffer was added and flow cytometry analysis was performed.

[3] = tested on: MOLM13 cells; assay: Apoptosis assay (FITC Annexin V), MOLM13 cells; type: cell-based; settings: MOLM13 cells, 1, 2 and 4 μM for 24 h
Description: as §1, §2

[4] = tested on: ENL-dependent MLL-rearranged leukemia cells; settings: cited from earlier work

## C[C@H]1CCCN1Cc1nc2cc(NC(=O)c3ccc4c(cnn4C)c3)ccc2[nH]1 [SGC-iMLLT, reference compound]
[1]
  ENL target gene expression (mRNA levels): did not dramatically affect these genes
[2]
  induction of apoptosis: but not the negative control compound LQ108-4 or SGC-iMLLT, induced apoptosis
[3]
  induction of apoptosis: but not the negative control compound LQ108-4 or SGC-iMLLT, induced apoptosis
[4]
  inhibition of cell growth: largely ineffective in inhibiting the growth
